Results reported in ChEMBL document CHEMBL1137487, “Synthesis and biological activities of glycosphingolipid analogues from marine sponge Aplysinella rhax” (Bioorg Med Chem Lett, 2007).
Activity calls are given as the source filed them. No cut-off for these calls is given here.

These molecules were tested on J774.1 (assay: Inhibition of LPS-stimulated nitric oxide production in J774.1 cells). Conditions: Mus musculus.
Assay type: functional, cell-based
In the case of CCCCCCCCCCCCCCC(CCCCCCCCCCCCCC)CO[C@@H]1O[C@H](CO)[C@@H](O[C@@H]2O[C@H](CO)[C@H](O)[C@H](O)[C@H]2O)[C@H](O[C@H]2O[C@H](C)[C@H](O)[C@H](O)[C@H]2O)[C@H]1NC(C)=O, the Activity is reported as “Active”.
For CCCCCCCCCCCCCCC(CCCCCCCCCCCCCC)CO[C@@H]1O[C@H](CO)[C@@H](O[C@@H]2O[C@H](CO)[C@H](O)[C@H](O)[C@H]2NC(C)=O)[C@H](O[C@H]2O[C@@H](C)[C@@H](O)[C@@H](O)[C@@H]2O)[C@H]1NC(C)=O (stereo in doubt), the Activity was “Active”.
For CCCCCCCCCCCCCCC(CCCCCCCCCCCCCC)CO[C@@H]1O[C@H](CO)[C@@H](O[C@@H]2O[C@H](CO)[C@H](O)[C@H](O)[C@H]2NC(C)=O)[C@H](O[C@H]2O[C@H](C)[C@H](O)[C@H](O)[C@H]2O)[C@H]1NC(C)=O, the Activity was “Active”.
In the case of CC(=O)N[C@H]1[C@H](O[C@H]2[C@H](O[C@H]3O[C@H](C)[C@H](O)[C@H](O)[C@H]3O)[C@@H](NC(C)=O)[C@H](OCC[Si](C)(C)C)O[C@@H]2CO)O[C@H](CO)[C@H](O)[C@@H]1O, the Activity is reported as “Active”.
